pIC50: −log10 of the molar value. Where “and” joins values, the source holds several entries; their conditions need not be identical. Equal entries are not always repeated.
Target: Histamine H1 receptor (Cavia porcellus, UniProt P31389)
Assay: Antihistaminic activity against Histamine H1 receptor was measured on isolated terminal part of guinea pig ileum
Assay type: tissue-based
Conditions: for IC50: read-out: I50 (converted)

Sequence of Histamine H1 receptor (P31389 whole entry): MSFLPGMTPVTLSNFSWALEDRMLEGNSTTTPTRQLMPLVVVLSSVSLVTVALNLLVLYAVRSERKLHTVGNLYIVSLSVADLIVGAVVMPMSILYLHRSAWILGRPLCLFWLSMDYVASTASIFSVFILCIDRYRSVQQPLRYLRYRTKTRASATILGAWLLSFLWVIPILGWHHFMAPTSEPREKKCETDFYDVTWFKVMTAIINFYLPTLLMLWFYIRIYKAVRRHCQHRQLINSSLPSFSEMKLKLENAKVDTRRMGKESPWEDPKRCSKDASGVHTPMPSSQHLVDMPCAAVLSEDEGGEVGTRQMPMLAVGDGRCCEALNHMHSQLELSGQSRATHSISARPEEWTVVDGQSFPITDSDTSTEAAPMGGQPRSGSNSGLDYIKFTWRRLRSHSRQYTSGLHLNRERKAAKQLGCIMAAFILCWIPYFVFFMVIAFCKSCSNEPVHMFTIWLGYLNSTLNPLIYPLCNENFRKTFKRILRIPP

IC50	pIC50 (read-out: I50)	Structure (SMILES)
1280 nM and 1270 nM		O=C(CCN1CCN2Cc3[nH]c4ccccc4c3CC2C1)Nc1ccccc1F (stereo unspecified)
1320 nM and 1310 nM		O=C(CCN1CCN2Cc3ccccc3CC2C1)Nc1ccccc1[N+](=O)[O-] (stereo unspecified)
634 nM		CCc1ccccc1NC(=O)CCN1CCN2Cc3[nH]c4ccccc4c3CC2C1 (stereo unspecified)
525 nM and 523 nM		CCc1ccccc1NC(=O)CCN1CCN2Cc3ccccc3CC2C1 (stereo unspecified)
1740 nM		O=C(CCN1CCN2Cc3[nH]c4ccccc4c3CC2C1)Nc1ccccc1[N+](=O)[O-] (stereo unspecified)
364 nM		COc1ccccc1C(=O)NCCN1CCN2Cc3[nH]c4ccccc4c3CC2C1 (stereo unspecified)
677 nM and 676 nM		O=C(CCN1CCN2Cc3ccccc3CC2C1)Nc1ccccc1Cl (stereo unspecified)
1600 nM		O=C(CCN1CCN2Cc3[nH]c4ccccc4c3CC2C1)Nc1ccccc1 (stereo unspecified)
1510 nM and 1520 nM		O=C(CCN1CCC(Cc2ccccc2)CC1)Nc1ccccc1
979 nM and 978 nM		O=C(CCN1CCN2Cc3[nH]c4ccccc4c3CC2C1)Nc1ccccc1Cl (stereo unspecified)
1340 nM		O=C(CCN1CCN2Cc3ccccc3CC2C1)Nc1ccccc1 (stereo unspecified)

Further lines, the compound ahead of its results:

Structure (SMILES)	IC50	pIC50 (read-out: I50)
O=C(NCCN1CCN(Cc2ccccc2)CC1)c1ccccc1[N+](=O)[O-]	1320 nM and 1570 nM	
c1ccc2c3c([nH]c2c1)CN1CCNCC1C3 (stereo unspecified)	535 nM	
O=C(NCCN1CCC(Cc2ccccc2)CC1)c1ccccc1Cl	799 nM and 785 nM	
CCc1ccccc1NC(=O)CCN1CCN(Cc2ccccc2)CC1	778 nM and 939 nM	
CCc1ccccc1NC(=O)CCN1CCC(Cc2ccccc2)CC1	477 nM and 485 nM	
O=C(NCCN1CCN(Cc2ccccc2)CC1)c1ccccc1Cl	696 nM and 838 nM	
O=C(CCN1CCC(Cc2ccccc2)CC1)Nc1ccccc1Cl	561 nM and 560 nM	
Cc1ccccc1C(=O)NCCN1CCC(Cc2ccccc2)CC1	1070 nM and 1190 nM	
NN1CCN2Cc3[nH]c4ccccc4c3CC2C1 (stereo unspecified)	925 nM	
O=C(NCCN1CCC(Cc2ccccc2)CC1)c1ccccc1	1550 nM and 1740 nM	
O=C(NCCN1CCC(Cc2ccccc2)CC1)c1ccccc1Br	661 nM and 673 nM	
O=C(CCN1CCN(Cc2ccccc2)CC1)Nc1ccccc1F	1320 nM and 908 nM	
O=C(CCN1CCN(Cc2ccccc2)CC1)Nc1ccccc1[N+](=O)[O-]	1700 nM and 2040 nM	
Cc1ccccc1C(=O)NCCN1CCN(Cc2ccccc2)CC1	7120 nM and 7110 nM	
O=C(NCCN1CCN(Cc2ccccc2)CC1)c1ccccc1	6940 nM and 8500 nM	
O=[N+]([O-])N1CCN2Cc3[nH]c4ccccc4c3CC2C1 (stereo unspecified)	375 nM	
O=C(CCN1CCC(Cc2ccccc2)CC1)Nc1ccccc1F	832 nM and 822 nM	
O=C(NCCN1CCN(Cc2ccccc2)CC1)c1ccccc1I	345 nM and 401 nM	
ClN1CCN2Cc3[nH]c4ccccc4c3CC2C1 (stereo unspecified)	206 nM	
O=C(CCN1CCN(Cc2ccccc2)CC1)Nc1ccccc1Cl	836 nM and 1010 nM	
COc1ccccc1NC(=O)CCN1CCC(Cc2ccccc2)CC1	965 nM	6.02
O=C(CCN1CCN(Cc2ccccc2)CC1)Nc1ccccc1	2170 nM and 2200 nM	
O=C(NCCN1CCN(Cc2ccccc2)CC1)c1ccccc1Br	421 nM and 497 nM	
CN1CCN2Cc3[nH]c4ccccc4c3CC2C1 (stereo unspecified)	283 nM	

From ChEMBL document CHEMBL1125003, “Synthesis, biological evaluation, and quantitative structure-activity relationship analysis of [beta-(Aroylamino)ethyl]piperazines and -piperidines and [2-[(Arylamino)carbonyl]ethyl]piperazines, -pyrazinopyridoindoles, and -pyrazinoisoquinolines. A new class of potent H1 antagonists” (J Med Chem, 1990)
